Test results published in patent EP0326640B1, “(1R,5S,6S)-2-substituted thio-6 (R)-1-hydroxyethyl -1-methyl-carbapenem - carboxylic acid derivatives” (LEDERLE (JAPAN) LTD., priority 1987, dated 1989).
In brackets after ≈: the same amount, converted by molar mass.

Columns and labels:
[1] = system: Pseudomonas cepacia GN 11164; assay: Antibacterial activity against clinically isolated β-lactamase (cephalosporinase) producing strains (MIC); type: cell-based; conditions: cephalosporinase producing strain, SDA, 18 to 20 hours
Protocol: (§1) The antibacterial activities against clinically isolated β-lactamase producing strains were tested by the agar plate dilution method in accordance with the standard method of The Japanese Chemotherapy Society [Chemotherapy, Vol. 29, 76-79 (1981)]. A solution of a cephalosporinase producing strain stored by Episome Research Institute, prepared by incubating the strain in a sensitivity test broth (STB; product of Nissui K. K.) for 18 hours, was diluted with a fresh STB solution so that the solution contained 10⁶ cells per milliliter. The diluted solution was then inoculated as spots in a microplanter on a sensitivity disk agar-N (SDA; product of Nissui K. K.) containing a test compound. The disk agar was then incubated for 18 to 20 hours. The minimum inhibitory concentration was determined as a minimum concentration in which the test microorganism no longer grew after a 18 to 20-hour incubation.

[2] = system: Serratia marcescens GN 10857; assay: as above; type: cell-based; conditions: Serratia marcescens GN 10857; cephalosporinase producing strain, SDA, 18 to 20 hours
Protocol: as §1

[3] = system: Escherichia coli No. 1501; assay: as above; type: cell-based; conditions: cephalosporinase producing strain, SDA, 18 to 20 hours
Protocol: as §1

[4] = system: Escherichia coli GN 5482; assay: as above; type: cell-based; conditions: cephalosporinase producing strain, SDA, 18 to 20 hours
Protocol: as §1

[5] = system: Citrobactor freundii GN 346; assay: as above; type: cell-based; conditions: cephalosporinase producing strain, SDA, 18 to 20 hours
Protocol: as §1

[6] = system: Klebsiella oxytoca GN 10650; assay: as above; type: cell-based; conditions: Klebsiella oxytoca GN 10650; cephalosporinase producing strain, SDA, 18 to 20 hours
Protocol: as §1

[7] = system: Proteus morganii GN 5375; assay: as above; type: cell-based; conditions: Morganella morganii, GN5375, cephalosporinase producing strain, SDA, 18 to 20 hours
Protocol: as §1

[8] = system: Proteus vulgaris GN 4413; assay: as above; type: cell-based; conditions: Proteus vulgaris GN 4413; cephalosporinase producing strain, SDA, 18 to 20 hours
Protocol: as §1

[9] = system: Providencia rettgeri GN 4430; assay: as above; type: cell-based; conditions: cephalosporinase producing strain, SDA, 18 to 20 hours
Protocol: as §1

[10] = system: Proteus morganii GN 5407; assay: as above; type: cell-based; conditions: Morganella morganii, GN5407, cephalosporinase producing strain, SDA, 18 to 20 hours
Protocol: as §1

[11] = system: Serratia marcescens L-65; assay: as above; type: cell-based; conditions: Serratia marcescens L-65; cephalosporinase producing strain, SDA, 18 to 20 hours
Protocol: as §1

[12] = system: Proteus vulgaris GN 7919; assay: as above; type: cell-based; conditions: Proteus vulgaris GN 7919; cephalosporinase producing strain, SDA, 18 to 20 hours
Protocol: as §1

[13] = system: Proteus vulgaris GN 76; assay: as above; type: cell-based; conditions: Proteus vulgaris GN 76; cephalosporinase producing strain, SDA, 18 to 20 hours
Protocol: as §1

[14] = system: Proteus morganii GN 5307; assay: as above; type: cell-based; conditions: Proteus morganii GN 5307; cephalosporinase producing strain, SDA, 18 to 20 hours
Protocol: as §1

[15] = system: Citrobactor freundii GN 7391; assay: as above; type: cell-based; conditions: cephalosporinase producing strain, SDA, 18 to 20 hours
Protocol: as §1

[16] = system: Pseudomonas aeruginosa GN 10367; assay: as above; type: cell-based; conditions: GN10367; Pseudomonas aeruginosa GN 10367; cephalosporinase producing strain, SDA, 18 to 20 hours; read-out: MIC
Protocol: as §1

[17] = system: Providencia rettgeri GN 4762; assay: as above; type: cell-based; conditions: Providencia rettgeri GN 4762; cephalosporinase producing strain, SDA, 18 to 20 hours
Protocol: as §1

[18] = system: Escherichia coli No. 96; assay: as above; type: cell-based; conditions: cephalosporinase producing strain, SDA, 18 to 20 hours
Protocol: as §1

[19] = system: Enterobacter cloacae GN 7471; assay: as above; type: cell-based; conditions: cephalosporinase producing strain, SDA, 18 to 20 hours
Protocol: as §1

[20] = system: Providencia rettgeri GN 5284; assay: as above; type: cell-based; conditions: cephalosporinase producing strain, SDA, 18 to 20 hours
Protocol: as §1

[21] = system: Serratia marcescens L-82; assay: as above; type: cell-based; conditions: cephalosporinase producing strain, SDA, 18 to 20 hours
Protocol: as §1

[22] = system: Enterobacter cloacae GN 5797; assay: as above; type: cell-based; conditions: cephalosporinase producing strain, SDA, 18 to 20 hours
Protocol: as §1

[23] = system: Enterobacter cloacae GN 7467; assay: as above; type: cell-based; conditions: Enterobacter cloacae, GN7467, Enterobacter cloacae GN 7467; cephalosporinase producing strain, SDA, 18 to 20 hours
Protocol: as §1

[24] = system: Pseudomonas aeruginosa GN 918; assay: as above; type: cell-based; conditions: Pseudomonas aeruginosa, GN918, Pseudomonas aeruginosa GN 918; cephalosporinase producing strain, SDA, 18 to 20 hours
Protocol: as §1

[25] = system: Pseudomonas aeruginosa GN 10362; assay: as above; type: cell-based; conditions: cephalosporinase producing strain, SDA, 18 to 20 hours
Protocol: as §1

[26] = system: P. aeruginosa resistant strains; assay: Sensitivity test against clinical isolates, agar plate dilution method; type: cell-based
Protocol: The test procedures were based on the agar plate dilution method in accordance with the standard method of The Japanese Chemotherapy Society. The minimum inhibitory concentration (MIC) was determined in substantially the same manner as the test procedures II above using the 54 strains of P. aeruginosa having an anti-Pseudomonas resistance.

[27] = system: Salmonella schottmuelleri 8006; assay: Antibacterial test, agar plate dilution method (MIC), standard strains; type: cell-based; conditions: MH agar, 37°C, 18 hours
Protocol: (§2) The antibacterial activities were tested by an agar plate dilution method in accordance with the standard method of The Japanese Chemotherapy Society [Chemotherapy, Vol. 29, 76-79 (1981)].
(§3) A Mueller-Hinton (MH) agar liquid medium of a test microorganism was cultured overnight at 37°C and the resultant culture medium was diluted with a buffered saline gelatin (BSG) solution to contain approximately 10⁶ cells of the test microorganisms per milliliter, and then the diluted solution was inoculated with a microplanter at the rate of approximately 5 microliters on a MH agar medium containing a test compound. This medium was then incubated at 37°C for 18 hours. The minimum inhibitory concentration (MIC) is determined as a minimum concentration in which no test microorganism could grow. It is noted here that the test organisms used were all standard strains.

[28] = system: Salmonella paratyphi 1015; assay: as above; type: cell-based; conditions: MH agar, 37°C, 18 hours
Protocol: as §2, §3

[29] = system: Proteus vulgaris HX-19; assay: as above; type: cell-based; conditions: Proteus vulgaris HX-19; MH agar, 37°C, 18 hours
Protocol: as §2, §3

[30] = system: Morganella morganii IFO3848; assay: as above; type: cell-based; conditions: MH agar, 37°C, 18 hours
Protocol: as §2, §3

[31] = system: Proteus vulgaris OX-19; assay: as above; type: cell-based; conditions: Proteus vulgaris OX-19; MH agar, 37°C, 18 hours
Protocol: as §2, §3

[32] = system: Serratia marcescens IAM1184; assay: as above; type: cell-based; conditions: MH agar, 37°C, 18 hours
Protocol: as §2, §3

[33] = system: Pseudomonas aeruginosa IFO 3445; assay: as above; type: cell-based; conditions: MH agar, 37°C, 18 hours
Protocol: as §2, §3

[34] = system: Salmonella enteritidis G14; assay: as above; type: cell-based; conditions: Salmonella enterica, MH agar, 37°C, 18 hours, read-out: MIC
Protocol: as §2, §3

[35] = system: Proteus mirabilis IFO3849; assay: as above; type: cell-based; conditions: Proteus mirabilis IFO3849; MH agar, 37°C, 18 hours
Protocol: as §2, §3

[36] = system: Salmonella typhi 901; assay: as above; type: cell-based; conditions: MH agar, 37°C, 18 hours
Protocol: as §2, §3

[37] = system: Providencia rettgeri IFO 3850; assay: as above; type: cell-based; conditions: MH agar, 37°C, 18 hours
Protocol: as §2, §3

[38] = system: Pseudomanas aeruginosa NCTC 10940; assay: as above; type: cell-based; conditions: MH agar, 37°C, 18 hours
Protocol: as §2, §3

[39] = system: male mice of CrjCD(SD) strain; assay: Toxicity, intravenous administration to mice, observation for one week; type: in vivo; conditions: 500 mg/kg administered intravenously; group of 10 male mice
Protocol: Toxicological studies were carried out using a group of 10 male mice of CrjCD(SD) strain weighing from 20 to 23 grams. A solution containing the crystalline carbapenem compound (20) of the present invention obtained by Example 11 was administered intravenously to the mice and subjected to observations for one week.

C[C@@H](O)[C@H]1C(=O)N2C(C(=O)[O-])=C(SCc3cs[n+](C)n3)[C@H](C)[C@H]12 [Crystalline Compd. (20), (1R,5S,6S)-2-[(2-methyl-1,2,3-thiadiazolium-4-yl)methyl]thio-6-[(R)-1-hydroxyethyl]-1-methyl-carbapenem-3-carboxylate]
MIC [1]: 0.39 µg/mL (≈ 1.1 µM)
MIC [2]: 3.13 µg/mL (≈ 8.81 µM)
MIC [3]: 0.05 µg/mL (≈ 0.141 µM)
MIC [4]: 0.05 µg/mL (≈ 0.141 µM)
MIC [5]: 0.78 µg/mL (≈ 2.19 µM)
MIC [6]: 0.2 µg/mL (≈ 0.563 µM)
MIC [7]: 1.56 µg/mL (≈ 4.39 µM)
MIC [8]: 3.13 µg/mL (≈ 8.81 µM)
MIC [9]: 0.39 µg/mL (≈ 1.1 µM)
MIC [10]: 1.56 µg/mL (≈ 4.39 µM)
MIC [11]: 0.39 µg/mL (≈ 1.1 µM)
MIC [12]: 0.78 µg/mL (≈ 2.19 µM)
MIC [13]: 3.13 µg/mL (≈ 8.81 µM)
MIC [14]: 0.78 µg/mL (≈ 2.19 µM)
MIC [15]: 0.78 µg/mL (≈ 2.19 µM)
MIC [16]: 3.13 µg/mL (≈ 8.81 µM)
MIC [17]: 0.2 µg/mL (≈ 0.563 µM)
MIC [18]: 0.05 µg/mL (≈ 0.141 µM)
MIC [19]: 0.1 µg/mL (≈ 0.281 µM)
MIC [20]: 0.39 µg/mL (≈ 1.1 µM)
MIC [21]: 0.2 µg/mL (≈ 0.563 µM)
MIC [22]: 0.1 µg/mL (≈ 0.281 µM)
MIC [23]: 1.56 µg/mL (≈ 4.39 µM)
MIC [24]: 1.56 µg/mL (≈ 4.39 µM)
MIC [25]: 0.78 µg/mL (≈ 2.19 µM)
concentration to inhibit the growth of all the test microorganisms [26]: 6.25 µg/mL
percent of strains inhibited at 3.13 µg/mL ([26]; Pseudomonas aeruginosa, read-out: test microorganisms whose growth is inhibited): ~99%
MIC [27]: 0.39 µg/mL (≈ 1.1 µM)
MIC [28]: 1.56 µg/mL (≈ 4.39 µM)
MIC [29]: 1.56 µg/mL (≈ 4.39 µM)
MIC [30]: 0.2 µg/mL (≈ 0.563 µM)
MIC [31]: 1.56 µg/mL (≈ 4.39 µM)
MIC [32]: 0.78 µg/mL (≈ 2.19 µM)
MIC [33]: 0.39 µg/mL (≈ 1.1 µM)
MIC [34]: 0.78 µg/mL (≈ 2.19 µM)
MIC [35]: 3.13 µg/mL (≈ 8.81 µM)
MIC [36]: 0.013 µg/mL (≈ 0.0366 µM)
MIC [37]: 0.025 µg/mL (≈ 0.0703 µM)
MIC [38]: 0.2 µg/mL (≈ 0.563 µM)
toxicity, observations for one week [39]: alive without any abnormal observations
